Literature values as cited in article PMC9924909 (Brain, 2022).
Read-outs that look alike come from different tables or passages of the source.

Columns and labels:
[1] = cited from earlier work
patients with GD3 = settings: cited from earlier work

SMILES	distribution to the brain [1]	effect on neurological symptoms (patients with GD3)	effect on neurological symptoms (patients with GD3; listed as miglustat)
CCCCCCCC(=O)N[C@H](CN1CCCC1)[C@H](O)c1ccc2c(c1)OCCO2 [Eliglustat]	excluded from the brain	–	–
CCCCN1C[C@H](O)[C@@H](O)[C@H](O)[C@H]1CO [Miglustat]	partially distributed to the brain	ineffective for neurological symptoms	no clinical benefit
